Results from ChEMBL document CHEMBL5465560, “Selectivity Literature for EUbOPEN Chemogenomic Library” (2024).
Each block holds one molecule with its values, some of them ahead of it.

Columns and labels:
[1] = target: T1, Serine/threonine-protein kinase TAO1 (Homo sapiens) (UniProt Q7L7X3); assay: Selectivity interaction (KinomeScan (DiscoverX)) EUB0001049a TAOK1; settings: at 1 µM
T1 sequence (whole entry): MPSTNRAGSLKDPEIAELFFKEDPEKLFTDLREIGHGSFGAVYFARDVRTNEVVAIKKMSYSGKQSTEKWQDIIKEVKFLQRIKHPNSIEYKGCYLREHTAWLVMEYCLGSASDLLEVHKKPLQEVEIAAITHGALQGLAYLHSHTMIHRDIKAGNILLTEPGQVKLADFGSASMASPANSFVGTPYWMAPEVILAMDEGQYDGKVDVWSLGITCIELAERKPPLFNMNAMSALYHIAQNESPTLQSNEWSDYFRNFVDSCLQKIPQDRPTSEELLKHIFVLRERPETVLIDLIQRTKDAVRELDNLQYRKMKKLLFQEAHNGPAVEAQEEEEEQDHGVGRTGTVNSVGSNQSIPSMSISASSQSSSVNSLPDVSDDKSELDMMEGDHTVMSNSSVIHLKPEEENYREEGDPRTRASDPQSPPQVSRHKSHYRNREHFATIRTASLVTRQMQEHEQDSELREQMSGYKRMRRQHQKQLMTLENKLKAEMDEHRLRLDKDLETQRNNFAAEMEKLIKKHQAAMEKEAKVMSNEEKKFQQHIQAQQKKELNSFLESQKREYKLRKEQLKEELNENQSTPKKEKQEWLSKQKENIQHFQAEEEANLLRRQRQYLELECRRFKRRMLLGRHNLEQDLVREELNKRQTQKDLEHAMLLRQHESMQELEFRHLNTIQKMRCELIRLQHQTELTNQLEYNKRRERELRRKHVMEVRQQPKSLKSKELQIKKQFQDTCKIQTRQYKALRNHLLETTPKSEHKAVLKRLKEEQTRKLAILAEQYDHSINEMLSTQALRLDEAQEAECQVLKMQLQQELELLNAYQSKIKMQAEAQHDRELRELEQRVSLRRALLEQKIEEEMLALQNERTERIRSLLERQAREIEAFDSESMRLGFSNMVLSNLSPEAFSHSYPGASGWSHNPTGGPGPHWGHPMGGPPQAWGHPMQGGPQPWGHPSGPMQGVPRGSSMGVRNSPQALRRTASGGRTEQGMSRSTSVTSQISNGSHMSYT

[2] = target: Proto-oncogene tyrosine-protein kinase receptor Ret (Homo sapiens, UniProt P07949); assay: Selectivity interaction (Kinase panel (Invitrogen)) EUB0000639a RET; settings: at 200 nM
Proto-oncogene tyrosine-protein kinase receptor Ret, sequence (P07949 whole entry): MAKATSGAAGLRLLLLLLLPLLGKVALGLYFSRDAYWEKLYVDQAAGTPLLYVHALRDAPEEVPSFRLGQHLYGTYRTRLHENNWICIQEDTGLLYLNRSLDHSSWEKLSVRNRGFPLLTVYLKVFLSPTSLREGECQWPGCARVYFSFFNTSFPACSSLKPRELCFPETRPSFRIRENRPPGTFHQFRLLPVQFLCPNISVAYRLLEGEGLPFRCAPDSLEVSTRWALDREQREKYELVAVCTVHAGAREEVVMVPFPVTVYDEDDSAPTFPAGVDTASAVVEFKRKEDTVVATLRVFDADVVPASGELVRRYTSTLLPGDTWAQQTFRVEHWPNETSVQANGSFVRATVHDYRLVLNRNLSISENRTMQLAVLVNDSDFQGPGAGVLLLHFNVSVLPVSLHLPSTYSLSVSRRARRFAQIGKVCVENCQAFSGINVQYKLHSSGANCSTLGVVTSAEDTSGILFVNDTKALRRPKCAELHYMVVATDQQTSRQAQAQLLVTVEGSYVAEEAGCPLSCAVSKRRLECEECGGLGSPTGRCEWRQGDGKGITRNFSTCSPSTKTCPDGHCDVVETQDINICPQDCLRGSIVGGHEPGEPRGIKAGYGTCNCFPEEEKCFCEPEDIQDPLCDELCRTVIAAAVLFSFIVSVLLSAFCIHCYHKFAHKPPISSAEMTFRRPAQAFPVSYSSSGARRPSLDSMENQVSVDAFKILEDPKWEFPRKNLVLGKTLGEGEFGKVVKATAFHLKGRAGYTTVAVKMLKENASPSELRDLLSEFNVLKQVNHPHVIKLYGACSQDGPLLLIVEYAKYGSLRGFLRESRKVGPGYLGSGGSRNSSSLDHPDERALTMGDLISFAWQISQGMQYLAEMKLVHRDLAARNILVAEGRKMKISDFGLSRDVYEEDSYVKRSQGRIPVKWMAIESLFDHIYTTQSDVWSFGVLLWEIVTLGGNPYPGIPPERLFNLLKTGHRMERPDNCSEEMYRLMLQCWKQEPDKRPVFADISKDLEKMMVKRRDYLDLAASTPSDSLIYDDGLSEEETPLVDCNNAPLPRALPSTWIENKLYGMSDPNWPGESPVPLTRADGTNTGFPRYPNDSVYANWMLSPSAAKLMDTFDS

[3] = target: Tyrosine-protein kinase Lyn (Homo sapiens, UniProt P07948); assay: Selectivity interaction (Kinase panel (Z-LYTE Assay)) EUB0001632a LYN; settings: at 10 µM
Tyrosine-protein kinase Lyn, sequence (P07948 2-512 limits assumed): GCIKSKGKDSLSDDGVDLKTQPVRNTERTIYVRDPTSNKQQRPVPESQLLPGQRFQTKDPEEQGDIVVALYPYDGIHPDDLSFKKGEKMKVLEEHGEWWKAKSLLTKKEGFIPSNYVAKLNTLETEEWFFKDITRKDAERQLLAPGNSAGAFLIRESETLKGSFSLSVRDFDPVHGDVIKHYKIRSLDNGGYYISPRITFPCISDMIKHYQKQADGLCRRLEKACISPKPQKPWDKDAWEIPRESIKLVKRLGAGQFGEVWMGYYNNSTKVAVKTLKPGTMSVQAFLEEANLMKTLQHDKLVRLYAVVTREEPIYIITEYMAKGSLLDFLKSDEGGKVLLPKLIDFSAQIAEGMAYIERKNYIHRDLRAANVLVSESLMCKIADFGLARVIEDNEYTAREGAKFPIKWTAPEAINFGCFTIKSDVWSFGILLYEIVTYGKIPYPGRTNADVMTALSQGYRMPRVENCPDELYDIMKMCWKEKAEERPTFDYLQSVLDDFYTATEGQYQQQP

[4] = target: T2, Serine/threonine-protein kinase ULK2 (Homo sapiens) (UniProt Q8IYT8); assay: Selectivity interaction (LanthaScreen Eu Kinase Binding Assay) EUB0001632a ULK2; settings: at 10 µM
T2 sequence (whole entry): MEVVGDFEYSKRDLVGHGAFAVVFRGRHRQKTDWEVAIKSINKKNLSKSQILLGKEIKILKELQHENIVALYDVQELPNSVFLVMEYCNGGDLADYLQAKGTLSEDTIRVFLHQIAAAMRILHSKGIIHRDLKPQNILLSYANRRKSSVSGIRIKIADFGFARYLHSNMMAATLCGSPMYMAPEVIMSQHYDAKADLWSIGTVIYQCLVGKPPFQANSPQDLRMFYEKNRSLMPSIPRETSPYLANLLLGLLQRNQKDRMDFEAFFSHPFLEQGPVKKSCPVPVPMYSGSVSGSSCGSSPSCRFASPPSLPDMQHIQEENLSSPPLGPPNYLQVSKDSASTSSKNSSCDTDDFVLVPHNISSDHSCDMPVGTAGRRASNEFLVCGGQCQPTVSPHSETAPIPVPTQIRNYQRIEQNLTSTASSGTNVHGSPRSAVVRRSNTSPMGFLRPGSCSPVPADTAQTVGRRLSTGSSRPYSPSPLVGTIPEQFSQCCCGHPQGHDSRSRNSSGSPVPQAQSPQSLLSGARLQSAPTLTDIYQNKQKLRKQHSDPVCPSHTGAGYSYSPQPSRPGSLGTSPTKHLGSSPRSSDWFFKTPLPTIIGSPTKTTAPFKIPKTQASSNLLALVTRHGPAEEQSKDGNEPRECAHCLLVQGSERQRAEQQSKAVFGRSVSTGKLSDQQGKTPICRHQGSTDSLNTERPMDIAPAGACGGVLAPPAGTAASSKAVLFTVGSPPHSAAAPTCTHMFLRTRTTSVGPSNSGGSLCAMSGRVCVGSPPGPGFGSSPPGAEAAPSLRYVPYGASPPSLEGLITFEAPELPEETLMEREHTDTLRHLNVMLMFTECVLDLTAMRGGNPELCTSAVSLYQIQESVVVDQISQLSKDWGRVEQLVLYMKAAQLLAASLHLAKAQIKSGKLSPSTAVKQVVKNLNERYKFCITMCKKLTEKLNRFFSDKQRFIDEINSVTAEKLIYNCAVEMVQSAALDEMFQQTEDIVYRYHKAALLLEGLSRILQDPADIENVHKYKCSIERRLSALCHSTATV

[5] = target: T3, Alpha-1A adrenergic receptor (Homo sapiens) (UniProt P35348); assay: Selectivity interaction (Panel of non-epigenetic targets (kinases, GPCRs, ion channels, and transporters, Eurofins) ) EUB0000271b ADRA1A; settings: at 1 µM
T3 sequence (whole entry): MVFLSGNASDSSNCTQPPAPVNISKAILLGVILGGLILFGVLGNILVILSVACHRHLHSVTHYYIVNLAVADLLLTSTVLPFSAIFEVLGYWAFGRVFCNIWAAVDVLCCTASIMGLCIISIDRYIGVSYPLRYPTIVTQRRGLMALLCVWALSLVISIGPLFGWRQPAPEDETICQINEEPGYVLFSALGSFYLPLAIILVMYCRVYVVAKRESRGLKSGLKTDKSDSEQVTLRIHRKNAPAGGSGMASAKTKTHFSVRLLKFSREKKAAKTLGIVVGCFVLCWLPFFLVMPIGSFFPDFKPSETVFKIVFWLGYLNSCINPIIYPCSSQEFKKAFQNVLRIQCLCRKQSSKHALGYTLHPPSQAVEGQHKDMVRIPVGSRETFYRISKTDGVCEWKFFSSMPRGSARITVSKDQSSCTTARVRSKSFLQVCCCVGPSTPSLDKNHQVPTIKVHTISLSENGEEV

[6] = target: Protein kinase C gamma type (Homo sapiens) (UniProt P05129); assay: Selectivity interaction (SelectScreen profiling (Invitrogen)) EUB0000607a PRKCG; settings: at 2 µM

SMILES: COc1cc(Nc2nc(C)cc(-c3cnn4nc(OC)ccc34)n2)cc(C(F)(F)F)c1
% of control [1]: 96%

% of inhibition [2]: 58.6%
SMILES: CC[C@@H]1[C@H](F)C(=O)N[C@@H]1COc1nccc2cc(C(N)=O)c(OC)cc12 [ZIMLOVISERTIB]

% of control [3]: 8.19%
% of inhibition [4]: -117%
SMILES: Cn1cc(-n2cnc3c(NCc4nc5cc(Cl)c(Cl)cc5[nH]4)nc(N4CCOCC4)nc32)cn1

SMILES: Cc1cc(C)cc([C@@H]2c3cc(C)ccc3NC(=O)CN2C(=O)c2ccc(Br)s2)c1
% of inhibition [5]: 4%

SMILES: CNC(=O)Nc1ccc(-c2nc(N3CC4CCC(C3)O4)c3cnn(C4CCC5(CC4)OCCO5)c3n2)cc1
% of inhibition [6]: 11%
